Values of other authors, collected in patent US9669111B2, “Device for the diagnosis of inflammatory tissues in dental applications” (THOMMEN MEDICAL AG, priority 2012, dated 2017).
Counter-ions that a name gives are not always drawn.

Key:
[1] = system: human tongue; settings: for concentration sensed down to (taste recognition): human tongue, average human
[2] = system: human volunteers (bitter taste); settings: reciprocal of the dilution barely noticed as bitter; reference for calibration

SMILES | concentration sensed down to (taste recognition) [1] [mM] | further results
C=C[C@H]1C[N@@]2CC[C@H]1C[C@H]2[C@H](O)c1ccnc2ccc(OC)cc12 [Quinine sulfate] | 0.0004 | –
C=C[C@H]1C[N@@]2CC[C@H]1C[C@H]2[C@H](O)c1ccnc2ccc(OC)cc12 [quinine-HCl] | – | bitter value [2]: 200,000
C=C[C@H]1C[N@@]2CC[C@H]1C[C@H]2[C@H](O)c1ccnc2ccc(OC)cc12 [quinine] | – | sensory recognition threshold ([1]; human): about 0.0004 mmol/L
O=C1NS(=O)(=O)c2ccccc21 [saccharin] | 0.02 | –
